According to ChEMBL document CHEMBL3885881, “DrugMatrix”:
Values joined by “and” are separate entries in the source; they are usually repeats but may differ in a detail not shown here. Identical values can stand only once.

Species: Rattus norvegicus
Assay: DrugMatrix - Regimen: Daily Repeat
Type: toxicity, organism-based, Sprague-Dawley
Parameters: regimen Daily Repeat, gender Male, age 6-8 weeks
Details: in vivo, po, route oral GAVAGE, vehicle .5 % CMC; for BASOPHIL / EOSINOPHIL / ERYTHROCYTE COUNT / HEMATOCRIT / HEMOGLOBIN / LEUKOCYTE COUNT / LYMPHOCYTE / MEAN CORPUSCULAR HEMOGLOBIN / MEAN CORPUSCULAR HEMOGLOBIN CONCENTRATION / MEAN CORPUSCULAR VOLUME / MONOCYTE / NEUTROPHIL / PLATELET COUNT / ABSOLUTE BASOPHIL / ABSOLUTE EOSINOPHIL / ABSOLUTE LYMPHOCYTE / ABSOLUTE MONOCYTE / ABSOLUTE SEGMENTED NEUTROPHIL: tissue Blood; for ALANINE AMINOTRANSFERASE / ALBUMIN / ALKALINE PHOSPHATASE / ASPARTATE AMINOTRANSFERASE / BLOOD UREA NITROGEN / CHLORIDE / CHOLESTEROL / CREATINE PHOSPHOKINASE / CREATININE / GLUCOSE / PHOSPHORUS / POTASSIUM / SODIUM / TOTAL BILIRUBIN / TOTAL PROTEIN / LACTATE DEHYDROGENASE / LIPASE / URIC ACID: tissue Plasma
[1] = 0 mg/kg, 72 h, dose level Control, time 3 day
[2] = 0 mg/kg, 120 h, dose level Control, time 5 day
[3] = 0 mg/kg, 2184 h, dose level Control, time 91 day
[4] = 0 mg/kg, […], dose level Control, time 28 day
[5] = 80 mg/kg, 120 h, dose level Low, time 5 day
[6] = 80 mg/kg, 2184 h, dose level Low, time 91 day

SMILES: O=c1cc(-c2ccccc2)oc2ccc3ccccc3c12 [BETA-NAPHTHOFLAVONE]
- BASOPHIL [1]: 0.52%
- EOSINOPHIL [1]: 0.48%
- ERYTHROCYTE COUNT [1]: 6.68 x10E6/uL
- HEMATOCRIT [1]: 43.07%
- HEMOGLOBIN [1]: 13.48 G/DL
- LEUKOCYTE COUNT [1]: 11.41 x10E3/uL
- LYMPHOCYTE [1]: 80.78%
- MEAN CORPUSCULAR HEMOGLOBIN [1]: 20.2 pg
- MEAN CORPUSCULAR HEMOGLOBIN CONCENTRATION [1]: 31.32 G/DL
- MEAN CORPUSCULAR VOLUME [1]: 64.45 fL
- MONOCYTE [1]: 2.23%
- NEUTROPHIL [1]: 14.73%
- PLATELET COUNT [1]: 1225.83 x10E3/uL
- ALANINE AMINOTRANSFERASE [1]: 44.5 u/L
- ALBUMIN [1]: 3.62 G/DL
- ALKALINE PHOSPHATASE [1]: 404.5 u/L
- ASPARTATE AMINOTRANSFERASE [1]: 71.67 u/L
- BLOOD UREA NITROGEN [1]: 15 mg/dL
- CHLORIDE [1]: 103 MEQ/L
- CHOLESTEROL [1]: 96.83 mg/dL
- CREATINE PHOSPHOKINASE [1]: 236 u/L
- CREATININE [1]: 0.43 mg/dL
- GLUCOSE [1]: 186.83 mg/dL
- PHOSPHORUS [1]: 12.67 mg/dL
- POTASSIUM [1]: 7.1 MEQ/L
- SODIUM [1]: 147.33 MEQ/L
- TOTAL BILIRUBIN [1]: 0.52 mg/dL
- TOTAL PROTEIN [1]: 6.18 G/DL
- ABSOLUTE BASOPHIL [2]: 92 cells/µL
- ABSOLUTE EOSINOPHIL [2]: 52 cells/µL
- ABSOLUTE LYMPHOCYTE [2]: 6560 cells/µL
- ABSOLUTE MONOCYTE [2]: 160 cells/µL
- ABSOLUTE SEGMENTED NEUTROPHIL [2]: 1130 cells/µL
- BASOPHIL [2]: 1.14% and 0.92%
- EOSINOPHIL [2]: 0.68% and 0.43%
- ERYTHROCYTE COUNT [2]: 7.51 x10E6/uL and 7.03 x10E6/uL
- HEMATOCRIT [2]: 46.04% and 46.55%
- HEMOGLOBIN [2]: 15.62 G/DL and 14.32 G/DL
- LEUKOCYTE COUNT [2]: 8.03 x10E3/uL and 12.22 x10E3/uL
- LYMPHOCYTE [2]: 81.54% and 82.65%
- MEAN CORPUSCULAR HEMOGLOBIN [2]: 20.84 pg and 20.35 pg
- MEAN CORPUSCULAR HEMOGLOBIN CONCENTRATION [2]: 33.94 G/DL and 30.77 G/DL
- MEAN CORPUSCULAR VOLUME [2]: 61.42 fL and 66.28 fL
- MONOCYTE [2]: 2% and 2.28%
- NEUTROPHIL [2]: 14.24% and 12.73%
- PLATELET COUNT [2]: 1427.2 x10E3/uL and 1268.67 x10E3/uL
- ALANINE AMINOTRANSFERASE [2]: 35.6 u/L and 44.5 u/L
- ALBUMIN [2]: 3.64 G/DL and 3.73 G/DL
- ALKALINE PHOSPHATASE [2]: 233 u/L and 340.83 u/L
- ASPARTATE AMINOTRANSFERASE [2]: 81 u/L and 66.5 u/L
- BLOOD UREA NITROGEN [2]: 12 mg/dL and 13.33 mg/dL
- CHLORIDE [2]: 109.4 MEQ/L and 102.17 MEQ/L
- CHOLESTEROL [2]: 47.6 mg/dL and 82.17 mg/dL
- CREATINE PHOSPHOKINASE [2]: 183.2 u/L and 146.67 u/L
- CREATININE [2]: 0.4 mg/dL and 0.35 mg/dL
- GLUCOSE [2]: 134.6 mg/dL and 186.17 mg/dL
- LACTATE DEHYDROGENASE [2]: 89.4 u/L
- LIPASE [2]: 17.2 u/L
- PHOSPHORUS [2]: 13.02 mg/dL and 11.83 mg/dL
- POTASSIUM [2]: 7 MEQ/L and 6.47 MEQ/L
- SODIUM [2]: 149.6 MEQ/L and 148.83 MEQ/L
- TOTAL PROTEIN [2]: 6.06 G/DL and 6.27 G/DL
- URIC ACID [2]: 1.04 mg/dL
- ABSOLUTE BASOPHIL [3]: 130 cells/µL
- ABSOLUTE EOSINOPHIL [3]: 70 cells/µL
- ABSOLUTE LYMPHOCYTE [3]: 8670 cells/µL
- ABSOLUTE MONOCYTE [3]: 160 cells/µL
- ABSOLUTE SEGMENTED NEUTROPHIL [3]: 1530 cells/µL
- BASOPHIL [3]: 1.13%
- EOSINOPHIL [3]: 0.66%
- ERYTHROCYTE COUNT [3]: 9.13 x10E6/uL
- HEMATOCRIT [3]: 48.47%
- HEMOGLOBIN [3]: 16.56 G/DL
- LEUKOCYTE COUNT [3]: 10.5 x10E3/uL
- LYMPHOCYTE [3]: 81.63%
- MEAN CORPUSCULAR HEMOGLOBIN [3]: 18.16 pg
- MEAN CORPUSCULAR HEMOGLOBIN CONCENTRATION [3]: 34.14 G/DL
- MEAN CORPUSCULAR VOLUME [3]: 53.14 fL
- MONOCYTE [3]: 1.53%
- NEUTROPHIL [3]: 14.71%
- PLATELET COUNT [3]: 1280.22 x10E3/uL
- ALANINE AMINOTRANSFERASE [3]: 28.89 u/L
- ALBUMIN [3]: 3.69 G/DL
- ALKALINE PHOSPHATASE [3]: 101.11 u/L
- ASPARTATE AMINOTRANSFERASE [3]: 70.67 u/L
- BLOOD UREA NITROGEN [3]: 16.78 mg/dL
- CHLORIDE [3]: 104.56 MEQ/L
- CHOLESTEROL [3]: 58.78 mg/dL
- CREATINE PHOSPHOKINASE [3]: 91.22 u/L
- CREATININE [3]: 0.61 mg/dL
- GLUCOSE [3]: 142.33 mg/dL
- LACTATE DEHYDROGENASE [3]: 81.67 u/L
- LIPASE [3]: 13 u/L
- PHOSPHORUS [3]: 7.54 mg/dL
- POTASSIUM [3]: 6.27 MEQ/L
- SODIUM [3]: 149.89 MEQ/L
- TOTAL BILIRUBIN [3]: 0.19 mg/dL
- TOTAL PROTEIN [3]: 7.12 G/DL
- URIC ACID [3]: 0.97 mg/dL
- ABSOLUTE BASOPHIL [4]: 150 cells/µL
- ABSOLUTE EOSINOPHIL [4]: 54 cells/µL
- ABSOLUTE LYMPHOCYTE [4]: 8890 cells/µL
- ABSOLUTE MONOCYTE [4]: 190 cells/µL
- ABSOLUTE SEGMENTED NEUTROPHIL [4]: 2250 cells/µL
- BASOPHIL [4]: 1.26%
- EOSINOPHIL [4]: 0.46%
- ERYTHROCYTE COUNT [4]: 8.34 x10E6/uL
- HEMATOCRIT [4]: 48.66%
- HEMOGLOBIN [4]: 16.04 G/DL
- LEUKOCYTE COUNT [4]: 11.58 x10E3/uL
- LYMPHOCYTE [4]: 76.74%
- MEAN CORPUSCULAR HEMOGLOBIN [4]: 19.2 pg
- MEAN CORPUSCULAR HEMOGLOBIN CONCENTRATION [4]: 32.92 G/DL
- MEAN CORPUSCULAR VOLUME [4]: 58.32 fL
- MONOCYTE [4]: 1.76%
- NEUTROPHIL [4]: 19.44%
- PLATELET COUNT [4]: 1282.6 x10E3/uL
- ALANINE AMINOTRANSFERASE [4]: 27 u/L
- ALBUMIN [4]: 3.68 G/DL
- ALKALINE PHOSPHATASE [4]: 146.2 u/L
- ASPARTATE AMINOTRANSFERASE [4]: 66.6 u/L
- BLOOD UREA NITROGEN [4]: 12.4 mg/dL
- CHLORIDE [4]: 104.6 MEQ/L
- CHOLESTEROL [4]: 59.6 mg/dL
- CREATINE PHOSPHOKINASE [4]: 121.8 u/L
- CREATININE [4]: 0.6 mg/dL
- GLUCOSE [4]: 143 mg/dL
- LACTATE DEHYDROGENASE [4]: 87.8 u/L
- LIPASE [4]: 17.4 u/L
- PHOSPHORUS [4]: 8.68 mg/dL
- POTASSIUM [4]: 6.02 MEQ/L
- SODIUM [4]: 152.8 MEQ/L
- TOTAL BILIRUBIN [4]: 0.26 mg/dL
- TOTAL PROTEIN [4]: 6.92 G/DL
- URIC ACID [4]: 0.52 mg/dL
- ABSOLUTE BASOPHIL [5]: 80 cells/µL
- ABSOLUTE EOSINOPHIL [5]: 62 cells/µL
- ABSOLUTE LYMPHOCYTE [5]: 9510 cells/µL
- ABSOLUTE MONOCYTE [5]: 180 cells/µL
- ABSOLUTE SEGMENTED NEUTROPHIL [5]: 1430 cells/µL
- BASOPHIL [5]: 0.74%
- EOSINOPHIL [5]: 0.56%
- ERYTHROCYTE COUNT [5]: 7.55 x10E6/uL
- HEMATOCRIT [5]: 45.54%
- HEMOGLOBIN [5]: 15.6 G/DL
- LEUKOCYTE COUNT [5]: 11.31 x10E3/uL
- LYMPHOCYTE [5]: 84.24%
- MEAN CORPUSCULAR HEMOGLOBIN [5]: 20.68 pg
- MEAN CORPUSCULAR HEMOGLOBIN CONCENTRATION [5]: 34.26 G/DL
- MEAN CORPUSCULAR VOLUME [5]: 60.36 fL
- MONOCYTE [5]: 1.58%
- NEUTROPHIL [5]: 12.46%
- PLATELET COUNT [5]: 1331 x10E3/uL
- ALANINE AMINOTRANSFERASE [5]: 31.8 u/L
- ALBUMIN [5]: 3.5 G/DL
- ALKALINE PHOSPHATASE [5]: 221.2 u/L
- ASPARTATE AMINOTRANSFERASE [5]: 79.4 u/L
- BLOOD UREA NITROGEN [5]: 10.4 mg/dL
- CHLORIDE [5]: 108.8 MEQ/L
- CHOLESTEROL [5]: 59.4 mg/dL
- CREATINE PHOSPHOKINASE [5]: 166.8 u/L
- CREATININE [5]: 0.52 mg/dL
- GLUCOSE [5]: 110.6 mg/dL
- LACTATE DEHYDROGENASE [5]: 103.8 u/L
- LIPASE [5]: 24.4 u/L
- PHOSPHORUS [5]: 11.66 mg/dL
- POTASSIUM [5]: 6.5 MEQ/L
- SODIUM [5]: 151 MEQ/L
- TOTAL BILIRUBIN [5]: 0.2 mg/dL
- TOTAL PROTEIN [5]: 6.1 G/DL
- URIC ACID [5]: 0.72 mg/dL
- ABSOLUTE BASOPHIL [6]: 410 cells/µL
- ABSOLUTE EOSINOPHIL [6]: 110 cells/µL
- ABSOLUTE LYMPHOCYTE [6]: 11200 cells/µL
- ABSOLUTE MONOCYTE [6]: 290 cells/µL
- ABSOLUTE SEGMENTED NEUTROPHIL [6]: 3040 cells/µL
- BASOPHIL [6]: 2.71%
